This note sets out measurements from US8029764B2, “Methods for detection of colorectal cancer” (The Johns Hopkins University, priority 2001, dated 2011).

The test system of this data set is colorectal tissue transcripts. The experiment in a line: SAGE of normal, adenoma and cancer colorectal tissue (transcript tag counts). Also on record: species or system human. To be noted: for AD1 (SAGE tag count): SAGE library AD1; for AD2 (SAGE tag count): SAGE library AD2; for CA1 (SAGE tag count): SAGE library CA1; for CA2 (SAGE tag count): SAGE library CA2; for NC1 (SAGE tag count): SAGE library NC1; for NC2 (SAGE tag count): SAGE library NC2. The text has this:
In an effort to identify potential molecular markers of early colorectal tumors, we have here analyzed gene expression in benign and malignant colorectal tumors in an unbiased and comprehensive fashion. We used SAGE to analyze global gene expression in normal, benign and malignant colorectal tissue. SAGE is a gene expression profiling method that associates individual mRNA transcripts with 15-base tags derived from specific positions near their 3′ termini (3). The abundance of each tag provides a quantitative measure of the transcript level present within the mRNA population studied. SAGE is not dependent on pre-existing databases of expressed genes, and therefore provides an unbiased view of gene expression profiles. For the current study, SAGE libraries derived from two samples of normal colonic epithelium, two colorectal adenomas, and two colorectal cancers were analyzed.
SAGE. For the initial SAGE^3 of benign tumors, fresh adenomas were obtained from surgical specimens derived from FAP patients. Adenomas from FAP patients were employed because of the ready availability of small lesions and the certainty of inactivation of the APC pathway which initiates the formation of the majority of sporadic tumors. After histopathological verification of the neoplastic nature of the lesion (>70% neoplastic cells), total RNA was isolated by solubilizing the tissue in RNAgents Lysis Buffer (Promega, Madison, Wis.) followed by ultracentrifugation over a cesium chloride gradient. mRNA selection was performed from the purified total RNA using oligo(dT) cellulose (Life Technologies, Gaithersburg, Md.). […] Tags were extracted from the raw sequence data and, after excluding repeated ditags, linker sequences, and tags from the polyrnorphic Major Histocompatibility loci, the resulting tag libraries were compared and statistical analysis performed using SAGE software, version 4.0. Data from the libraries are publicly available at the Uniform Resource Locator (URL) address for the http file type found on the www host server that has a domain name of ncbi.nlm.nih.gov, and a path to the directory SAGE, and detailed SAGE protocols are available at the Uniform Resource Locator (URL) address for the http file type found on the www host server that has a domain name of sagenet.org, and file name of sage_protocol.htn.

Take “CCCAACGCGC (chemistry not fully specified)”: the “AD1 (SAGE tag count)” value is listed as 3, the “AD2 (SAGE tag count)” value came out at 5, the “CA1 (SAGE tag count)” value was 0 and the “CA2 (SAGE tag count)” value is on record as 2. Also, the “NC1 (SAGE tag count)” value was determined as 106 and the “NC2 (SAGE tag count)” value is 1.
As to “CCCCCGAAGC (chemistry not fully specified)”, the “AD1 (SAGE tag count)” value was 3, the “AD2 (SAGE tag count)” value worked out at 15, the “CA1 (SAGE tag count)” value was 4 and the “CA2 (SAGE tag count)” value worked out at 8. The “NC1 (SAGE tag count)” value is given as 25 and the “NC2 (SAGE tag count)” value came to 27.
As for “CCCCCGCGGA (chemistry not fully specified)”, the “AD1 (SAGE tag count)” value is given as 6, the “AD2 (SAGE tag count)” value amounted to 11, the “CA1 (SAGE tag count)” value is recorded as 4 and the “CA2 (SAGE tag count)” value is on record as 12. Besides, the “NC1 (SAGE tag count)” value stood at 33 and the “NC2 (SAGE tag count)” value was determined as 25.
Turning to “CCCCCTGCAT (chemistry not fully specified)”, the “AD1 (SAGE tag count)” value worked out at 0, the “AD2 (SAGE tag count)” value is on record as 0, the “CA1 (SAGE tag count)” value was found to be 0 and the “CA2 (SAGE tag count)” value stood at 0. Also, the “NC1 (SAGE tag count)” value came to 5 and the “NC2 (SAGE tag count)” value is listed as 4.
Take “CCCGCCTCTT (chemistry not fully specified)”: the “AD1 (SAGE tag count)” value was 3, the “AD2 (SAGE tag count)” value came out at 3, the “CA1 (SAGE tag count)” value is 16 and the “CA2 (SAGE tag count)” value amounted to 1. Also, the “NC1 (SAGE tag count)” value worked out at 0 and the “NC2 (SAGE tag count)” value came to 40.
For “CCCTCCCGAA (chemistry not fully specified)”, the “AD1 (SAGE tag count)” value was determined as 9, the “AD2 (SAGE tag count)” value stood at 14, the “CA1 (SAGE tag count)” value came to 18 and the “CA2 (SAGE tag count)” value came out at 7. Moreover, the “NC1 (SAGE tag count)” value was 89 and the “NC2 (SAGE tag count)” value is listed as 54.
In the case of “CCGCTGCACT (chemistry not fully specified)”, the “AD1 (SAGE tag count)” value amounted to 55, the “AD2 (SAGE tag count)” value is on record as 46, the “CA1 (SAGE tag count)” value is recorded as 37 and the “CA2 (SAGE tag count)” value was determined as 30. In addition, the “NC1 (SAGE tag count)” value is on record as 127 and the “NC2 (SAGE tag count)” value was found to be 102.
For “CCGGCTTGAG (chemistry not fully specified)”, the “AD1 (SAGE tag count)” value is recorded as 0, the “AD2 (SAGE tag count)” value was found to be 0, the “CA1 (SAGE tag count)” value is given as 0 and the “CA2 (SAGE tag count)” value is on record as 0. Moreover, the “NC1 (SAGE tag count)” value was 7 and the “NC2 (SAGE tag count)” value came to 4.
“CCTCCAGCTA (chemistry not fully specified)”: the “AD1 (SAGE tag count)” value is reported as 142, the “AD2 (SAGE tag count)” value worked out at 125, the “CA1 (SAGE tag count)” value is listed as 131 and the “CA2 (SAGE tag count)” value worked out at 147. The “NC1 (SAGE tag count)” value came out at 715 and the “NC2 (SAGE tag count)” value was 458.
In the case of “CCTCCAGTAC (chemistry not fully specified)”, the “AD1 (SAGE tag count)” value was 2, the “AD2 (SAGE tag count)” value came out at 3, the “CA1 (SAGE tag count)” value worked out at 2 and the “CA2 (SAGE tag count)” value came to 4. Also, the “NC1 (SAGE tag count)” value is 20 and the “NC2 (SAGE tag count)” value was 8.
Regarding “CCTGCCCCCC (chemistry not fully specified)”, the “AD1 (SAGE tag count)” value turned out to be 6, the “AD2 (SAGE tag count)” value amounted to 3, the “CA1 (SAGE tag count)” value came out at 11 and the “CA2 (SAGE tag count)” value is 4. Also, the “NC1 (SAGE tag count)” value stood at 20 and the “NC2 (SAGE tag count)” value came to 30.
“CCTGCTGCAG (chemistry not fully specified)”: the “AD1 (SAGE tag count)” value came to 0, the “AD2 (SAGE tag count)” value is on record as 1, the “CA1 (SAGE tag count)” value was determined as 6 and the “CA2 (SAGE tag count)” value turned out to be 9. Besides, the “NC1 (SAGE tag count)” value worked out at 7 and the “NC2 (SAGE tag count)” value stood at 34.
Take “CCTGCTTGTC (chemistry not fully specified)”: the “AD1 (SAGE tag count)” value came out at 0, the “AD2 (SAGE tag count)” value worked out at 3, the “CA1 (SAGE tag count)” value worked out at 0 and the “CA2 (SAGE tag count)” value turned out to be 5. For the same sequence, the “NC1 (SAGE tag count)” value was determined as 20 and the “NC2 (SAGE tag count)” value was found to be 23.
Consider “CCTGGAAGAG (chemistry not fully specified)”, for which the “AD1 (SAGE tag count)” value is recorded as 11, the “AD2 (SAGE tag count)” value stood at 4, the “CA1 (SAGE tag count)” value is given as 12 and the “CA2 (SAGE tag count)” value was 16. Besides, the “NC1 (SAGE tag count)” value worked out at 30 and the “NC2 (SAGE tag count)” value was found to be 26.
Take “CCTGTCTGCC (chemistry not fully specified)”: the “AD1 (SAGE tag count)” value came to 0, the “AD2 (SAGE tag count)” value came out at 1, the “CA1 (SAGE tag count)” value was 1 and the “CA2 (SAGE tag count)” value turned out to be 1. The “NC1 (SAGE tag count)” value is on record as 14 and the “NC2 (SAGE tag count)” value was 22.
Take “CCTGTGACAG (chemistry not fully specified)”: the “AD1 (SAGE tag count)” value is 0, the “AD2 (SAGE tag count)” value is listed as 4, the “CA1 (SAGE tag count)” value is on record as 3 and the “CA2 (SAGE tag count)” value was 1. In addition, the “NC1 (SAGE tag count)” value is recorded as 22 and the “NC2 (SAGE tag count)” value stood at 27.
Turning to “CCTTCAAATC (chemistry not fully specified)”, the “AD1 (SAGE tag count)” value is 0, the “AD2 (SAGE tag count)” value was 0, the “CA1 (SAGE tag count)” value worked out at 1 and the “CA2 (SAGE tag count)” value stood at 0. For the same sequence, the “NC1 (SAGE tag count)” value stood at 29 and the “NC2 (SAGE tag count)” value is given as 17.
As for “CGAGGGGCCA (chemistry not fully specified)”, the “AD1 (SAGE tag count)” value stood at 18, the “AD2 (SAGE tag count)” value is 18, the “CA1 (SAGE tag count)” value was 12 and the “CA2 (SAGE tag count)” value is reported as 32. In addition, the “NC1 (SAGE tag count)” value was determined as 110 and the “NC2 (SAGE tag count)” value came out at 47.
“CGCTGTGGGG (chemistry not fully specified)”: the “AD1 (SAGE tag count)” value is listed as 19, the “AD2 (SAGE tag count)” value is listed as 8, the “CA1 (SAGE tag count)” value is listed as 8 and the “CA2 (SAGE tag count)” value amounted to 6. For the same sequence, the “NC1 (SAGE tag count)” value is 58 and the “NC2 (SAGE tag count)” value is 53.
For “CGGACTCACT (chemistry not fully specified)”, the “AD1 (SAGE tag count)” value is 5, the “AD2 (SAGE tag count)” value came out at 14, the “CA1 (SAGE tag count)” value is on record as 14 and the “CA2 (SAGE tag count)” value turned out to be 10. In addition, the “NC1 (SAGE tag count)” value was 20 and the “NC2 (SAGE tag count)” value came to 45.
In the case of “CGGGAGTCGG (chemistry not fully specified)”, the “AD1 (SAGE tag count)” value is listed as 13, the “AD2 (SAGE tag count)” value is 2, the “CA1 (SAGE tag count)” value was found to be 9 and the “CA2 (SAGE tag count)” value was found to be 1. Also, the “NC1 (SAGE tag count)” value was 28 and the “NC2 (SAGE tag count)” value stood at 30.
On to “CGGTGGGACC (target site or template, no part of the molecule; chemistry not given here)”, for which the “AD1 (SAGE tag count)” value was 1, the “AD2 (SAGE tag count)” value amounted to 1, the “CA1 (SAGE tag count)” value was found to be 3 and the “CA2 (SAGE tag count)” value was determined as 3. Besides, the “NC1 (SAGE tag count)” value was found to be 7 and the “NC2 (SAGE tag count)” value is 14.
For the sequence “CGTGGGTGGG (chemistry not fully specified)”, the “AD1 (SAGE tag count)” value amounted to 1, the “AD2 (SAGE tag count)” value is 0, the “CA1 (SAGE tag count)” value came to 0 and the “CA2 (SAGE tag count)” value is recorded as 1. Besides, the “NC1 (SAGE tag count)” value was determined as 1 and the “NC2 (SAGE tag count)” value is 10.
Consider “CTAGCCTCAC (chemistry not fully specified)”, for which the “AD1 (SAGE tag count)” value turned out to be 30, the “AD2 (SAGE tag count)” value turned out to be 53, the “CA1 (SAGE tag count)” value is listed as 36 and the “CA2 (SAGE tag count)” value is listed as 58. For the same sequence, the “NC1 (SAGE tag count)” value is 172 and the “NC2 (SAGE tag count)” value amounted to 90.
As to “CTCAGAACTT (chemistry not fully specified)”, the “AD1 (SAGE tag count)” value came out at 1, the “AD2 (SAGE tag count)” value amounted to 0, the “CA1 (SAGE tag count)” value came out at 0 and the “CA2 (SAGE tag count)” value is 0. For the same sequence, the “NC1 (SAGE tag count)” value was determined as 18 and the “NC2 (SAGE tag count)” value was 3.
As for “CTGAACCTCC (chemistry not fully specified)”, the “AD1 (SAGE tag count)” value is given as 2, the “AD2 (SAGE tag count)” value stood at 0, the “CA1 (SAGE tag count)” value worked out at 0 and the “CA2 (SAGE tag count)” value is 0. Moreover, the “NC1 (SAGE tag count)” value worked out at 5 and the “NC2 (SAGE tag count)” value was determined as 15.
